In PubChem BioAssay AID298 (DTP/NCI, 2004) one finds T/C data, which are given here for 19 compounds.

Where “and” joins values, the source holds several entries; their conditions need not be identical. Equal values may be shown once. Results filed as inconclusive are left out.

This test deals with MX-1 breast xenograft, intrarenal, nude mice, tumor weight. The test is described as follows: NCI In Vivo Anticancer Drug Screen. Data for tumor model Human Mammary Carcinoma MX-1 Xenograft (intrarenal inoculation) in NU/NU BALB/C (nude) mice. Conditions: endpoint: mean tumor weight change, higher = larger tumour. As to the method: The antitumor activity of compounds was measured in mice bearing transplantable tumors. Survival or tumor size were measured and the results are expressed as the measurement made in the treated group (T) divided by the measurement made in the vehicle treated control group (C). The tumor model used in this assay is Human Mammary Carcinoma MX-1 Xenograft (intrarenal inoculation) in NU/NU BALB/C (nude) mice
In general terms: A xenograft is tissue or cells of one species grown in another, often human tumour cells in immunodeficient mice.

Setting [1] is: dose: 100.0 mg/kg/injection, schedule: Q04DX003 (ip), vehicle: Klucel (hydroxypropylcellulose) (HPC).
Setting [2] is: dose: 200.0 mg/kg/injection, schedule: Q04DX003 (ip), vehicle: Klucel (hydroxypropylcellulose) (HPC).
The mark [3] stands for this setting: dose: 400.0 mg/kg/injection, schedule: Q04DX003 (ip), vehicle: Klucel (hydroxypropylcellulose) (HPC).
Setting [4] is: dose: 25.0 mg/kg/injection, schedule: Q04DX003 (ip), vehicle: saline.
Where [5] appears, read: dose: 50.0 mg/kg/injection, schedule: Q04DX003 (ip), vehicle: saline.
Where [6] appears, read: dose: 100.0 mg/kg/injection, schedule: Q04DX003 (ip), vehicle: saline.
The mark [7] stands for this setting: dose: 30.0 mg/kg/injection, schedule: Q04DX003 (ip), vehicle: saline with Tween-80.

As to `COc1oc(C2C/C(=C/C(C)=C/C(C)=C/C(C)=C/c3ccc([N+](=O)[O-])cc3)CO2)c(C)c(=O)c1C` (stereo not drawn), the T/C reads like this: (dose: 1.0 mg/kg/injection, schedule: Q04DX003 (ip), vehicle: saline) 106 % of control; (dose: 2.0 mg/kg/injection, schedule: Q04DX003 (ip), vehicle: saline) 48 % of control.
Take `O=C1c2ccccc2C(=O)c2c1cn1c2Cc2ccccc2C1`: the T/C is, setting by setting: (dose: 50.0 mg/kg/injection, schedule: Q04DX003 (ip), vehicle: Klucel (hydroxypropylcellulose) (HPC)) 72 % of control; under setting [1], 37 % of control; under setting [2], 26 % of control; under setting [3], 35 % of control.
Consider `O=C1C=C2C(=CCOC2O)O1` (stereo not drawn), for which the T/C (dose: 1.0 mg/kg/injection, schedule: Q04DX003 (sc), vehicle: Klucel (hydroxypropylcellulose) (HPC)) is 87 % of control; the T/C (dose: 2.0 mg/kg/injection, schedule: Q04DX003 (sc), vehicle: Klucel (hydroxypropylcellulose) (HPC)) was 79 % of control; the T/C (dose: 4.0 mg/kg/injection, schedule: Q04DX003 (sc), vehicle: Klucel (hydroxypropylcellulose) (HPC)) was 59 % of control.
Consider `COc1cc(C2c3cc4c(cc3[C@@H](OC3OC5CO[C@@H](C)OC5C(O)C3O)[C@H]3COC(=O)C23)OCO4)cc(OC)c1OC` (stereo partly drawn), for which the T/C is 88 % of control under setting [4]; 84 % of control under setting [5]; 55 % of control under setting [6]; 61 % of control (dose: 200.0 mg/kg/injection, schedule: Q04DX003 (ip), vehicle: saline); 32 % of control (dose: 400.0 mg/kg/injection, schedule: Q04DX003 (ip), vehicle: saline).
Take `COc1cccc(Sc2ccc([N+](=O)[O-])c3no[n+]([O-])c23)c1`: the T/C (dose: 7.5 mg/kg/injection, schedule: Q04DX003 (ip), vehicle: saline with Tween-80) is 69 % of control and 86 % of control; the T/C under setting [7] was 124 % of control; the T/C (dose: 480.0 mg/kg/injection, schedule: Q04DX003 (ip), vehicle: saline with Tween-80) is 36 % of control and 41 % of control and 50 % of control.
For the compound `CC(=O)Oc1[nH]c(=O)c2cccc3c2c1CCC3`, the T/C was 107 % of control (dose: 300.0 mg/kg/injection, schedule: Q04DX003 (sc), vehicle: saline with Tween-80); 93 % of control (dose: 600.0 mg/kg/injection, schedule: Q04DX003 (sc), vehicle: saline with Tween-80); 118 % of control (dose: 1200.0 mg/kg/injection, schedule: Q04DX003 (sc), vehicle: saline with Tween-80); 89 % of control (dose: 2400.0 mg/kg/injection, schedule: Q04DX003 (sc), vehicle: saline with Tween-80).
In the case of `N#Cc1c(N)[nH]c2ccc(Sc3ccccc3)cc12`, the T/C is, setting by setting: under setting [7], 92 % of control; (dose: 60.0 mg/kg/injection, schedule: Q04DX003 (ip), vehicle: saline with Tween-80) 88 % of control; (dose: 120.0 mg/kg/injection, schedule: Q04DX003 (ip), vehicle: saline with Tween-80) 75 % of control.
Regarding `NC1(C(=O)O)CCCC1`, the T/C is 73 % of control (dose: 25.0 mg/kg/injection, schedule: Q01DX010 (sc), vehicle: saline) and 31 % of control (dose: 50.0 mg/kg/injection, schedule: Q01DX010 (sc), vehicle: saline).
In the case of `Cc1c(-c2ccc(-c3ccccc3F)cc2)nc2ccc(F)cc2c1C(=O)O`, the T/C is 15 % of control and 19 % of control (dose: 6.9 mg/kg/injection, schedule: Q01DX009 (ip), vehicle: water); 8 % of control and 18 % of control (dose: 11.5 mg/kg/injection, schedule: Q01DX009 (ip), vehicle: water); 2 % of control and 12 % of control (dose: 19.2 mg/kg/injection, schedule: Q01DX009 (ip), vehicle: water); 6 % of control and 9 % of control (dose: 32.0 mg/kg/injection, schedule: Q01DX009 (ip), vehicle: water).
For `O=C[C@@H](CO)O[C@H](C=O)c1c[nH]c(=O)[nH]c1=O`, the T/C is 71 % of control under setting [4]; 54 % of control (dose: 37.5 mg/kg/injection, schedule: Q04DX003 (ip), vehicle: saline); 5 % of control and 9 % of control and 28 % of control under setting [6]; 4 % of control and 7 % of control (dose: 125.0 mg/kg/injection, schedule: Q04DX003 (ip), vehicle: saline).
As for `Cc1cnc(/C=N\NC(N)=S)c2cccc(N)c12`, the T/C (dose: 125.0 mg/kg/injection, schedule: Q04DX003 (ip), vehicle: saline with Tween-80) is 31 % of control.
As to `CN(C)CN1C(=O)S/C(=C2\C(=O)N(CN(C)C)c3ccccc32)C1=O`, the T/C under setting [1] was 102 % of control, the T/C under setting [2] is 100 % of control and the T/C under setting [3] was 80 % of control.
Take `N=C1CCCS1`: the T/C is, setting by setting: (dose: 18.75 mg/kg/injection, schedule: Q04DX003 (sc), vehicle: saline) 108 % of control; (dose: 37.5 mg/kg/injection, schedule: Q04DX003 (sc), vehicle: saline) 91 % of control; (dose: 75.0 mg/kg/injection, schedule: Q04DX003 (sc), vehicle: saline) 124 % of control.
For `O=[N+]([O-])O.[Ga]`, the T/C was 61 % of control (dose: 200.0 mg/kg/injection, schedule: Q04DX003 (sc), vehicle: saline); 67 % of control (dose: 400.0 mg/kg/injection, schedule: Q04DX003 (sc), vehicle: saline); 81 % of control (dose: 800.0 mg/kg/injection, schedule: Q04DX003 (sc), vehicle: saline); 74 % of control (dose: 1600.0 mg/kg/injection, schedule: Q04DX003 (sc), vehicle: saline).
Turning to `O=c1[nH]cc(F)c(=O)[nH]1`, under setting [5], the T/C is 43 % of control.
On to `Cn1cc(NC(=O)c2cc(NC(=O)c3cc(NC=O)cn3C)cn2C)cc1C(=O)NCCC(=N)N`, for which the T/C by setting is: (dose: 50.0 mg/kg/injection, schedule: Q04DX003 (ip), vehicle: water) 82 % of control; (dose: 100.0 mg/kg/injection, schedule: Q04DX003 (ip), vehicle: water) 83 % of control; (dose: 200.0 mg/kg/injection, schedule: Q04DX003 (ip), vehicle: water) 51 % of control.
Consider `COC(=O)[C@@]12OC[C@]34[C@H]([C@@H](O)[C@@H]1O)[C@@]1(C)CC(=O)C(OC(=O)CC(=O)OC5=C(C)[C@@H]6C[C@H]7OC(=O)[C@H](OC(=O)/C=C(\C)C(C)C)[C@H]8[C@]9(C(=O)OC)OC[C@]78[C@H]([C@@H](O)[C@@H]9O)[C@@]6(C)CC5=O)=C(C)[C@@H]1C[C@H]3OC(=O)[C@H](OC(=O)/C=C(\C)C(C)C)[C@@H]24`, for which the T/C is 86 % of control (dose: 3.12 mg/kg/injection, schedule: Q04DX003 (ip), vehicle: saline + Tween-80 + alcohol) and 63 % of control (dose: 6.25 mg/kg/injection, schedule: Q04DX003 (ip), vehicle: saline + Tween-80 + alcohol).
As for `c1ccc(-c2cc3cc4ccccc4cn3c2)cc1`, the T/C by setting is: (dose: 150.0 mg/kg/injection, schedule: Q04DX003 (ip), vehicle: saline with Tween-80) 61 % of control; (dose: 300.0 mg/kg/injection, schedule: Q04DX003 (ip), vehicle: saline with Tween-80) 108 % of control; (dose: 600.0 mg/kg/injection, schedule: Q04DX003 (ip), vehicle: saline with Tween-80) 81 % of control; (dose: 1200.0 mg/kg/injection, schedule: Q04DX003 (ip), vehicle: saline with Tween-80) 101 % of control.
For `COc1cc2c(cc1OC)[C@@H]1C(=O)c3ccc4c(c3O[C@@H]1CO2)C[C@H](C(C)C)O4`, the T/C was 78 % of control (dose: 37.5 mg/kg/injection, schedule: Q04DX003 (ip), vehicle: Klucel (hydroxypropylcellulose) (HPC)); 55 % of control (dose: 75.0 mg/kg/injection, schedule: Q04DX003 (ip), vehicle: Klucel (hydroxypropylcellulose) (HPC)); 57 % of control (dose: 150.0 mg/kg/injection, schedule: Q04DX003 (ip), vehicle: Klucel (hydroxypropylcellulose) (HPC)).
